Data as given in patent US9751837B2, “Kinase inhibitors” (RESPIVERT LIMITED, priority 2014, dated 2017).

Target: GSK 3α (Homo sapiens (Human), UniProt P49840)
Test: GSK 3α enzyme inhibition (Method 2), Z-LYTE FRET
Assay type: biochemical
Details: read-out: IC50 Values for Enzyme Inhibition GSK3α
Method: The enzyme inhibitory activities of compounds disclosed herein are determined by FRET using synthetic peptides labelled with both donor and acceptor fluorophores (Z-LYTE, Invitrogen Ltd., Paisley, UK).
The following two assay variants can be used for determination of GSK 3α inhibition.
The inhibitory activities of compounds of the invention against the GSK 3α enzyme isoform (Invitrogen), are evaluated by determining the level of activation/phosphorylation of the target peptide. The GSK3-α protein (500 ng/mL, 2.5 μL) is mixed with the test compound (2.5 μL at either 4 μg/mL, 0.4 μg/mL, 0.04 μg/mL, or 0.004 μg/mL) for 2 hr at RT. The FRET peptide (8 μM, 2.5 μL), which is a phosphorylation target for GSK3α, and ATP (40 μM, 2.5 μL) are then added to the enzyme/compound mixture and the resulting mixture incubated for 1 hr. Development reagent (protease, 5 μL) is added for 1 hr prior to detection in a fluorescence microplate reader (Varioskan® Flash, ThermoFisher Scientific).
In all cases, the site-specific protease cleaves non-phosphorylated peptide only and eliminates the FRET signal. Phosphorylation levels of each reaction are calculated using the ratio of coumarin emission (donor) over fluorescein emission (acceptor), for which high ratios indicate high phosphorylation and low ratios indicate low phosphorylation levels.
This method follows the same steps as Method 1 above, but utilises a shorter period of mixing of the test compound (105 minutes instead of 2 hours) with the GSK3-α protein. In addition, the concentrations of test compound employed are either 10 μg/mL, 1 μg/mL, 0.1 μg/mL, or 0.01 μg/mL

Chain of GSK 3α (P49840 whole entry): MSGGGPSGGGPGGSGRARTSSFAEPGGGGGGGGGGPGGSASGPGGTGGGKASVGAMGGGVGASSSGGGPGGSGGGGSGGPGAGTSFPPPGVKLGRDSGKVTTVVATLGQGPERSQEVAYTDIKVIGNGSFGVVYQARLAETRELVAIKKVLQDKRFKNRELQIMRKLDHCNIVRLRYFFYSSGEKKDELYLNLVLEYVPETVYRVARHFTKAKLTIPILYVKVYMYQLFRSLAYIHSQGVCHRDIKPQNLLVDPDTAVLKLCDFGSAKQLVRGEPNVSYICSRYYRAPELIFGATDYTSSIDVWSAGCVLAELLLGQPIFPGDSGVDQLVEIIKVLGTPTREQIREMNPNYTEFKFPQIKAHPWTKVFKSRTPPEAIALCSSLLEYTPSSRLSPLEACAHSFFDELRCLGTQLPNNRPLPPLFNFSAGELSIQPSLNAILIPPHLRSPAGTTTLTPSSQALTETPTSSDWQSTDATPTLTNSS

SMILES	IC50
COc1cc(Nc2cc(Oc3ccc(NC(=O)Nc4cc(C(C)(C)C)cc(NS(C)(=O)=O)c4OC)c4ccccc34)ccn2)ccc1C(=O)NCCCCC(=O)O [17(s), 5-[[4-[[4-[[4-[[5-tert-butyl-3-(methanesulfonamido)-2-methoxy-phenyl]carbamoylamino]-1-naphthyl]oxy]-2-pyridyl]amino]-2-methoxy-benzoyl]amino]pentanoic acid]	394 nM
COc1cc(Nc2cc(Oc3ccc(NC(=O)Nc4cc(C(C)(C)C)cc(NS(C)(=O)=O)c4OC)c4ccccc34)ccn2)ccc1S(=O)(=O)N(C)CCN1CCOCC1 [17(o), 1-[5-tert-butyl-3-(methanesulfonamido)-2-methoxy-phenyl]-3-[4-[[2-[3-methoxy-4-[methyl(2-morpholinoethyl)sulfamoyl]anilino]-4-pyridyl]oxy]-1-naphthyl]urea]	3320 nM
COc1c(NC(=O)Nc2ccc(Oc3ccnc(Nc4ccc(OCCCN5CCOCC5)c(C#N)c4)c3)c3ccccc23)cc(C(C)(C)C)cc1NS(C)(=O)=O [Example 10, N-(5-(tert-Butyl)-3-(3-(4-((2-((3-cyano-4-(3-morpholinopropxy)phenyl)amino)pyridin-4-yl)oxy)naphthalen-1-yl)ureido)-2-methoxyphenyl)methanesulfonamide]	5560 nM
COc1cc(Nc2cc(Oc3ccc(NC(=O)Nc4cc(C(C)(C)C)cc(NS(C)(=O)=O)c4OC)c4ccccc34)ccn2)ccc1C(=O)NCCN1CCS(=O)(=O)CC1 [17(r), 4-[[4-[[4-[[5-tert-butyl-3-(methanesulfonamido)-2-methoxy-phenyl]carbamoylamino]-1-naphthyl]oxy]-2-pyridyl]amino]-N-[2-(1,1-dioxo-1,4-thiazinan-4-yl)ethyl]-2-methoxy-benzamide]	4040 nM
COCCOCCOC[C@@H](C)NC(=O)c1ccc(Nc2cc(Oc3ccc(NC(=O)Nc4cc(C(C)(C)C)cc(NS(C)(=O)=O)c4OC)c4ccccc34)ccn2)cc1OC [17(g), 4-[[4-[[4-[[5-tert-butyl-3-(methanesulfonamido)-2-methoxy-phenyl]carbamoylamino]-1-naphthyl]oxy]-2-pyridyl]amino]-2-methoxy-N-[(1R)-2-[2-(2-methoxyethoxy)ethoxy]-1-methyl-ethyl]benzamide]	4100 nM
COc1cc(Nc2cc(Oc3ccc(NC(=O)Nc4cc(C(C)(C)C)cc(NS(C)(=O)=O)c4OC)c4ccccc34)ccn2)ccc1C(=O)NCCN1CCOC(C)(C)C1 [17(d), 4-[[4-[[4-[[5-tert-butyl-3-(methanesulfonamido)-2-methoxy-phenyl]carbamoylamino]-1-naphthyl]oxy]-2-pyridyl]amino]-N-[2-(2,2-dimethylmorpholin-4-yl)ethyl]-2-methoxy-benzamide]	> 11900 nM
COc1cc(Nc2cc(Oc3ccc(NC(=O)Nc4cc(C(C)(C)C)cc(NS(C)(=O)=O)c4OC)c4ccccc34)ccn2)ccc1C(=O)NCCN1CC[S+]([O-])CC1 [Example 7, 4-((4-((4-(3-(5-(tert-Butyl)-2-methoxy-3-(methylsulfonamido)phenyl)ureido)naphthalen-1-yl)oxy)pyridin-2-yl)amino)-2-methoxy-N-(2-(1-oxidothiomorpholino)ethyl)benzamide]	1100 nM
COc1cc(Nc2cc(Oc3ccc(NC(=O)Nc4cc(C(C)(C)C)cc(NS(C)(=O)=O)c4OC)c4ccccc34)ccn2)ccc1C(=O)NCCN1C[C@@H](C)O[C@@H](C)C1 [17(c), 4-[[4-[[4-[[5-tert-butyl-3-(methanesulfonamido)-2-methoxy-phenyl]carbamoylamino]-1-naphthyl]oxy]-2-pyridyl]amino]-N-[2-[(2S,6R)yl]ethyl]-2-methoxy-benzamide]	> 11900 nM
COc1cc(Nc2cc(Oc3ccc(NC(=O)Nc4cc(C(C)(C)C)cc(NS(C)(=O)=O)c4OC)c4ccccc34)ccn2)ccc1C(=O)NCCN1CCC(O)CC1 [17(m), 4-[[4-[[4-[[5-tert-butyl-3-(methanesulfonamido)-2-methoxy-phenyl]carbamoylamino]-1-naphthyl]oxy]-2-pyridyl]amino]-N-[2-(4-hydroxy-1-piperidyl)ethyl]-2-methoxy-benzamide]	2770 nM
COc1cc(Nc2cc(Oc3ccc(NC(=O)Nc4cc(C(C)(C)C)cc(C(N)=O)c4OC)c4ccccc34)ccn2)ccc1C(=O)NCCN1CCOCC1 [Example 4, 4-((4-((4-(3-(5-(tert-Butyl)-3-carbamoyl-2-methoxyphenyl)ureido)naphthalen-1-yl)oxy)pyridin-2-yl)amino)-2-methoxy-N-(2-morpholinoethyl)benzamide]	2020 nM
COCCOCCOCC[S+]([O-])c1ccc(Nc2cc(Oc3ccc(NC(=O)Nc4cc(C(C)(C)C)cc(NS(C)(=O)=O)c4OC)c4ccccc34)ccn2)cc1OC (stereo not drawn) [Example 11, N-(5-(tert-Butyl)-2-methoxy-3-(3-(4-((2-((3-methoxy-4-((2-(2-(2-methoxyethoxy)ethoxy)ethyl)sulfinyl)phenyl)amino)pyridin-4-yl)oxy)naphthalen-1-yl)ureido)phenyl)methanesulfonamide]	1300 nM
COc1cc(Nc2cc(Oc3ccc(NC(=O)Nc4cc(C(C)(C)C)cc(NS(C)(=O)=O)c4OC)c4ccccc34)ccn2)ccc1C(=O)NCCCN1CCN(C)CC1 [17(aa), 4-[[4-[[4-[[5-tert-butyl-3-(methanesulfonamido)-2-methoxy-phenyl]carbamoylamino]-1-naphthyl]oxy]-2-pyridyl]amino]-2-methoxy-N-[3-(4-methylpiperazin-1-yl)propyl]benzamide]	2930 nM
COCCOCCOCCNC(=O)c1ccc(Nc2cc(Oc3ccc(NC(=O)Nc4cc(C(C)(C)C)cc(NS(C)(=O)=O)c4OC)c4ccccc34)ccn2)cc1OC [Example 5, 4-((4-((4-(3-(5-(tert-Butyl)-2-methoxy-3-(methylsulfonamido)phenyl)ureido)naphthalen-1-yl)oxy)pyridin-2-yl)amino)-2-methoxy-N-(2-(2-(2-methoxyethoxy)ethoxy)ethyl)benzamide]	1340 nM
COc1cc(Nc2cc(Oc3ccc(NC(=O)Nc4cc(C(C)(C)C)cc(NS(C)(=O)=O)c4OC)c4ccccc34)ccn2)cc(OC)c1C(=O)O [Example 46, 4-[[4-[[4-[[5-tert-Butyl-3-(methanesulfonamido)-2-methoxyphenyl]carbamoylamino]-1-naphthyl]oxy]-2-pyridyl]amino]-2,6-dimethoxybenzoic acid]	225 nM
COc1cc(Nc2cc(Oc3ccc(NC(=O)Nc4cc(C(C)(C)C)cc(NS(C)(=O)=O)c4OC)c4ccccc34)ccn2)ccc1S(=O)(=O)N(C)CCCN1CCOCC1 [Example 13, 1-[5-tert-Butyl-3-(methanesulfonamido)-2-methoxy-phenyl]-3-[4-[[2-[3-methoxy-4-[methyl(3-morpholinopropyl)sulfamoyl]anilino]-4-pyridyl]oxy]-1-naphthyl]urea]	3630 nM
COc1cc(Nc2cc(Oc3ccc(NC(=O)Nc4cc(C(C)(C)C)cc(NS(C)(=O)=O)c4OC)c4ccccc34)ccn2)ccc1C(=O)NCCN1CCC(F)(F)CC1 [17(al), 4-[[4-[[4-[[5-tert-butyl-3-(methanesulfonamido)-2-methoxy-phenyl]carbamoylamino]-1-naphthyl]oxy]-2-pyridyl]amino]-N-[2-(4,4-difluoro-1-piperidyl)ethyl]-2-methoxy-benzamide]	11800 nM
COc1cc(Nc2cc(Oc3ccc(NC(=O)Nc4cc(C(C)(C)C)cc(NS(C)(=O)=O)c4OC)c4ccccc34)ccn2)ccc1C(=O)NCCCN1CCCOCC1 [17(aj), 4-[[4-[[4-[[5-tert-butyl-3-(methanesulfonamido)-2-methoxy-phenyl]carbamoylamino]-1-naphthyl]oxy]-2-pyridyl]amino]-2-methoxy-N-[3-(1,4-oxazepan-4-yl)propyl]benzamide]	2640 nM
COCCOCCOCCNC(=O)c1ccc(Nc2cc(Oc3ccc(NC(=O)Nc4cc(C(C)(C)C)cc(C(N)=O)c4OC)c4ccccc34)ccn2)cc1OC [Example 6, 4-((4-((4-(3-(5-(tert-Butyl)-3-carbamoyl-2-methoxyphenyl)ureido)naphthalen-1-yl)oxy)pyridin-2-yl)amino)-2-methoxy-N-(2-(2-(2-methoxyethoxy)ethoxy)ethyl)benzamide]	1900 nM
COc1cc(Nc2cc(Oc3ccc(NC(=O)Nc4cc(C(C)(C)C)cc(NS(C)(=O)=O)c4OC)c4ccccc34)ccn2)ccc1C(=O)NCC(C)(C)N1CCOCC1 [17(n), 4-[[4-[[4-[[5-tert-butyl-3-(methanesulfonamido)-2-methoxy-phenyl]carbamoylamino]-1-naphthyl]oxy]-2-pyridyl]amino]-2-methoxy-N-(2-methyl-2-morpholino-propyl)benzamide]	> 11900 nM
COc1cc(Nc2cc(Oc3ccc(NC(=O)Nc4cc(C(C)(C)C)cc(NS(C)(=O)=O)c4OC)c4ccccc34)ccn2)ccc1C(=O)NCCN1CCCC1 [17(q), 4-[[4-[[4-[[5-tert-butyl-3-(methanesulfonamido)-2-methoxy-phenyl]carbamoylamino]-1-naphthyl]oxy]-2-pyridyl]amino]-2-methoxy-N-(2-pyrrolidin-1-ylethyl)benzamide]	1980 nM
COc1cc(Nc2cc(Oc3ccc(NC(=O)Nc4cc(C(C)(C)C)cc(NS(C)(=O)=O)c4OC)c4ccccc34)ccn2)ccc1C(=O)NCCN1CCNCC1 [17(w), 4-[[4-[[4-[[5-tert-butyl-3-(methanesulfonamido)-2-methoxy-phenyl]carbamoylamino]-1-naphthyl]oxy]-2-pyridyl]amino]-2-methoxy-N-(2-piperazin-1-ylethyl)benzamide]	674 nM
